{
  "source": "patent EP2069533B1",
  "about": "“GENE […] FOR IDENTIFICATION, MONITORING AND TREATMENT OF MULTIPLE SCLEROSIS” (Life Technologies Corporation, priority 2006, dated 2008)",
  "tested_on": "IL1B",
  "experiment": "Whole blood response to E. coli filtrate with or without polymyxin B",
  "assay_type": "cell-based, human",
  "conditions": "polymyxin B added to E. coli filtrate",
  "source_text": "Figs. 27 through 41 illustrate the use of gene expression panels in early identification and monitoring of infectious disease. These figures plot the response, in expression products of the genes indicated, in whole blood, to the administration of various infectious agents or products associated with infectious agents. In each figure, the gene expression levels are \"calibrated\", as that term is defined herein, in relation to baseline expression levels determined with respect to the whole blood prior to administration of the relevant infectious agent. In this respect the figures are similar in nature to various figures of our below-referenced patent application WO 01/25473 (for example, Fig. 15 therein). The concentration change is shown ratiometrically, and the baseline level of 1 for a particular gene locus corresponds to an expression level for such locus that is the same, monitored at the relevant time after addition of the infectious agent or other stimulus, as the expression level before addition of the stimulus. Ratiometric changes in concentration are plotted on a logarithmic scale. Bars below the unity line represent decreases in concentration and bars above the unity line represent increases in concentration, the magnitude of each bar indicating the magnitude of the ratio of the change. […]\nThe responses were monitored at 2, 6, and 24 hours after administration. […]",
  "data": [
    {"substance": "polymyxin B", "values": [
      {"measurement": "response of IL1B to E. coli filtrate", "result": "did not affect the response"}
    ]}
  ]
}
